In US12098416B2, “Assessment of biological contamination and biological contamination treatment” (Halliburton Energy Services, Inc., priority 2019, dated 2024):

Legend:
[1] = tested on: SRB (sulfate reducing bacteria); assay: Biocide efficacy study on high TDS (10%) fluid sample, Rapid SRB Detection Pouches (thin-film culture device); type: cell-based; conditions: 4-hour biocide contact
Experimental: A biocide efficacy study on a high TDS (10%) fluid sample using a thin-film culture device was evaluated and compared to the traditional bug-bottle approach. The high TDS fluid sample was inoculated with mature SRB. Seventy-two 3 mL doses of the fluid sample were then introduced into 72 respective Rapid SRB Detection Pouches.
(§1) The fluid samples were then incubated at a temperature of 32° C. After approximately 24 hours of inoculation, the SRB count was measured using the incubation and referencing procedure of Example 1. The bug bottle numbers were determined by counting the number of bottles in a serial dilution which had formed a visible black precipitate.

[2] = tested on: SRB (sulfate reducing bacteria); assay: Biocide efficacy study on low TDS (1%) fluid sample, Rapid SRB Detection Pouches (thin-film culture device); type: cell-based; conditions: for reduction in SRB count: 24-hour biocide contact
Experimental: In this example, an assessment of biological contamination was performed using culture devices including indicator reagents. More specifically, SRB enumeration in various water samples including SRB was performed using thin-film culture devices (“pouches”). Three milliliters of two samples, Sample A and Sample B, were introduced into separate Rapid SRB Detection Pouches (manufactured by 3M™). The pouches were sealed and incubated at 32° C. The pouches were incubated upright to allow the precipitate to settle toward the bottom of pouch. The SRB count of each sample was measured at multiple time intervals using a visual technique where the color of the samples was compared to reference colors as shown in FIGS. 2A and 2B. The degree of blackening of the sample at certain time points compared to the reference is indicative of SRB count.
A biocide efficacy study on a low TDS (1%) fluid sample using a thin-film culture device was evaluated and compared to the traditional bug-bottle approach. The low TDS fluid sample was inoculated with mature SRB. Seventy-two 3 mL doses of the fluid sample were then introduced into 72 Rapid SRB Detection Pouches. […] The dosages were based on the standard US Environmental Protection Agency (EPA) recommendations for each respective biocide:
as §1

[3] = dose level not clearly singled out

Molecule	reduction in SRB count in comparison to the control [1, 3]	reduction in SRB count [2, 3]	reduction in SRB count in comparison to the control ([1]; low dose (THPS Low 25 ppm))	reduction in SRB count in comparison to the control ([2]; 4-hour biocide contact, low dose (THPS Low 25 ppm))	reduction in SRB count ([2]; low dose (THPS Low 25 ppm))
CCCCCCCCCC[N+](C)(C)CCCCCCCCCC.[Cl-] [Quat, didecyldimethyl ammonium chloride]	all but the Quat and THPS low dose biocide groups demonstrated a reduction in SRB count	all but the didecyldimethyl ammonium chloride and THPS low dose biocide groups demonstrated a reduction in SRB count	–	–	–
tetrakis(hydroxymethyl)phosphonium sulfate [THPS]	–	–	all but the Quat and THPS low dose biocide groups demonstrated a reduction in SRB count	all but the THPS Low biocide group demonstrated a reduction in SRB count	all but the didecyldimethyl ammonium chloride and THPS low dose biocide groups demonstrated a reduction in SRB count
